# Reference: patent EP4410284A1, “COMPOUND AND METHOD FOR THE TREATMENT OF ZELLWEGER SPECTRUM DISORDER” (Apteeus, priority 2023, dated 2024)
# Where a name gives a salt, the structure may show the parent alone. Read-outs that look alike come from different tables or passages of the source.
# Columns and labels:
# GM16513 cells [1] = format: cell-based; settings: 3 days, PI positive cells (dead cells)
# Protocol: (§1) Images were acquired using the EnSight multimode plate reader (PerkinElmer) and analysis was done using Columbus analysis software (PerkinElmer). […] Then the total number of cells and the % of dead cells was calculated.
# (§2) All HDAC inhibitors were tested at 1.3 and 10 µM for 3 days on GM16513 and PEX405 cells.
# PEX405 cells [2] = format: cell-based; settings: 3 days, PI positive cells (dead cells)
# Protocol: as §1, §2
# PEX405 cells [3] = test: Catalase import immunofluorescence, high-content screening (% importing cells); format: cell-based, human; settings: PEX405 cells, 3 days
# Protocol: Primary fibroblasts were seeded at 500-700 cells per well in 384-well plates and grown at 37°C overnight. Cells were treated with test compounds or 0.1% DMSO for 3 days. After 3 days and a wash with PBS, cells were fixed with 4% paraformaldehyde (Electron Microscopy Sciences) in PBS for 20 minutes. After 3 washes with PBS, the cells were permeabilized and blocked with 0.3% Triton X-100, 1% BSA in PBS for 30 minutes at room temperature followed by 3 washes with 1% BSA in PBS. The cells were incubated with a rabbit Catalase polyclonal antibody (#12980 Cell signaling) overnight at 4°C. Following 3 washes with PBS containing 0.1% Tween-20, the cells were incubated for 1 h at room temperature with a conjugated goat anti-rabbit secondary antibody Alexa Fluor 647 (Ab150083-Abcam). The cells were then washed 3 times with PBS and Hoechst 33342 (H3570-ThermoFisher Scientific) + HCS Cellmask Blue (H32720 - ThermoFisher Scientific) staining was performed at 0.1 µg/ml and 0.4 µg/mL respectively for 30 minutes at room temperature. The cells were finally washed 3 times with PBS and fluorescent images were acquired using the INCell Analyzer 6000 imaging platform (GE Healthcare Life Sciences).
# Images analysis was done using Columbus analysis software (PerkinElmer). DAPI channel was used to find nuclei (Hoechst 33342) and cytoplasm (HCS CellMask Blue) and border objects were removed. Cy5 channel (AlexaFluor 647) was used to find spots corresponding to peroxisomes which correctly import catalase. Cells were classified as importing or non-importing cells using a linear classifier method after training with images of wells containing Healthy cells and PEX1 deficient cells. The number of importing or non-importing cells was calculated. Finally, results were expressed as % of importing cells.
# The cytotoxicity was assessed in parallel using a double nucleus staining with Hoechst 33342 and Propidium Iodide (PI).
# GM16513 cells [4] = test: as above; format: cell-based, human; settings: GM16513 cells, 3 days; for EC50 / Emax: Homo sapiens, 72 h, dose response with 6 concentrations; for EC50: read-out: EC50; for Emax: read-out: Max Efficacy (% Importing cells)
Compound,% PI+ cells (GM16513 cells [1]; 1.3 µM),% PI+ cells (GM16513 cells [1]; 10 µM),% PI+ cells (PEX405 cells [2]; 1.3 µM),% PI+ cells (PEX405 cells [2]; 10 µM),% Importing cells (PEX405 cells [3]; 1.3 µM),% Importing cells (PEX405 cells [3]; 10 µM),% Importing cells (GM16513 cells [4]; 1.3 µM),% Importing cells (GM16513 cells [4]; 10 µM),EC50 (GM16513 cells [4]),Emax (GM16513 cells [4])
O=C(CCCCCCC(=O)Nc1cccnc1)NO [Pyroxamide],1%,4%,1%,1%,5%,3%,25%,11%,,
O=C(NO)c1ccc(CNC(=O)c2[nH]c(-c3ccc(O)cc3)cc2-c2ccoc2)cc1.O=C(O)C(F)(F)F [QTX125 (TFA)],11%,30%,13%,48%,23%,0%,83%,61%,,
Cn1cc(CNCC2CCN(c3ncc(C(=O)NO)cn3)CC2)c2ccccc21 [Quisinostat],17%,38%,24%,53%,40%,26%,98%,86%,30 nM,95%
Nc1cc(F)ccc1NC(=O)/C=C/c1cnn(C/C=C/c2ccccc2)c1 [RGFP966],1%,3%,1%,1%,1%,2%,11%,12%,,
COC(=O)c1ccc(OC(=O)CCCCCCC(=O)NO)cc1 [Remetinostat],1%,1%,0%,1%,3%,2%,12%,14%,,
"CN(C)Cc1ccc(S(=O)(=O)n2ccc(/C=C/C(=O)NO)c2)cc1 [Resminostat (hydrochloride), Resminostat]",2%,8%,1%,4%,13%,19%,60%,83%,1400 nM,86%
CCCCNNC(=O)c1ccc(-c2cccc(F)c2F)cc1 [SR-4370],1%,2%,0%,1%,5%,7%,26%,30%,,
O=C(NO)c1ccc(CN2CCCc3cc(Cl)ccc32)cc1 [SW-100],1%,5%,0%,2%,4%,0%,21%,6%,,
CCOC(=O)NCCCC(=O)NCCc1ccccc1 [Santacruzamate A],1%,1%,2%,1%,3%,3%,24%,25%,,
O=C(CCCCCN1C(=O)c2cccc3cccc(c23)C1=O)NO [Scriptaid],2%,8%,1%,6%,15%,16%,57%,92%,,
O=C1CCc2c(ccc3ccccc23)O1 [Splitomicin],1%,1%,0%,1%,5%,5%,33%,25%,,
O=C(CCCCCCC(=O)NO)NO [Suberoyl bis-hydroxamic acid],1%,2%,1%,1%,4%,10%,13%,57%,,
